Data published in patent US20090255440A1, “Benzothioxanthene dyes with improved application and toxicological properties” (Clariant International Ltd., priority 2008, published 2009).

Experiments:
[1] = LLNA test for skin sensitization (OECD Guideline 429); type: in vivo; details: OECD Guideline 429, suitable vehicle, for example acetone:olive oil (4+1)
Excerpt: We further submitted the same samples to a LLNA screening, in order to assess the potential skin sensitization properties of the product.
The Local Lymph Node Assay (LLNA) is an alternative to the guinea pig sensitization test which is employed by the pharmaceutical, chemical, consumer product and cosmetic industries to identify and characterize substances with immunotoxic properties.
Solvent Orange 63 as prepared above was subjected to LLNA test for skin sensitization, according to OECD Guideline 429 in suitable vehicle, for example acetone:olive oil (4+1).

[2] = system: Salmonella typhimurium Strain TA98; assay: Ames test for mutagenity (OECD 471); type: cell-based
Excerpt: Due to the availability of different grades of Solvent Orange 63 for the corrosion tests, we decided to submit them all to an Ames test, one of several genotoxicity assays for the assessment of product safety.
The Ames test is a screening for the mutagenic effect of substances on microorganisms, cells and tissue cultures and therefore their potential carcinogenic effect. This relies on the observation that the most common cause of cancer is somatic mutations brought about by DNA damage. Chemicals that damage bacterial DNA, and induce mutations, are therefore likely to cause mutations in mammalian cells. Assay is done using bacteria, which gives fast and relatively cheap results and avoids the controversial tests on animals.
The strains used are among those recommended by OECD 471: Salmonella typhimurium and Escherichia coli.
Solvent Orange 63 as prepared above was subjected to Ames test for mutagenity. The strains used are among those recommended by OECD 471: Salmonella typhimurium and E. coli.

[3] = in the presence of S9 mix (metabolic activation)

Q: For `O=c1c2ccccc2c2ccc3sc4ccccc4c4ccc1c2c34` [Solvent Orange 63 from Sample A, C.I. Solvent Orange 63], which “skin sensitization (LLNA)” value [1] is on record?
A: The value was “not skin sensitizers”.

Q: What about the “mutagenic to Salmonella typhimurium Strain TA98” value [2, 3] of the same compound?
A: Its value is “not mutagenic”.

Q: Which “skin sensitization (LLNA)” value [1] does the source give for `O=c1c2ccccc2c2ccc3sc4ccccc4c4ccc1c2c34` [Solvent Orange 63 from Sample B, C.I. Solvent Orange 63] here?
A: The value was “not skin sensitizers”.

Q: And the “mutagenic to Salmonella typhimurium Strain TA98” value [2, 3]?
A: Its value is “not mutagenic”.

Q: Which results are given for `O=c1c2ccccc2c2ccc3sc4ccccc4c4ccc1c2c34` [Solvent Orange 63 from Sample C, C.I. Solvent Orange 63]?
A: skin sensitization (LLNA) [1]: skin sensitizers; mutagenic to Salmonella typhimurium Strain TA98 [2, 3]: not mutagenic

Q: For `O=c1c2ccccc2c2ccc3sc4ccccc4c4ccc1c2c34` [Solvent Orange 63 from Sample D, C.I. Solvent Orange 63], which “skin sensitization (LLNA)” value [1] is on record?
A: Its value is “skin sensitizers”.

Q: What about the “mutagenic to Salmonella typhimurium Strain TA98” value ([2]; with or without liver microsomal activation (S9 mix)) of the same compound?
A: Its value is “mutagenic”.
